The experiment relates to Escherichia coli K12. Kind of experiment: Digital same-sample filtration AST at two antibiotic concentrations (Example 13). Format: cell-based. The following applies: for Both (number of wells) / Empty (number of wells) / Extracellular only (number of wells) / Intracellular only (number of wells): 19.0 to 21.2 minutes to centrifugation, 32 partitions, qPCR. The method, then:
A 96-well microtiter plate was prepared for the experiment by placing Mueller-Hinton Broth (MHB) growth media and one of three different concentrations of ertapenem (ETP) sodium salt into each well. 32 of the wells contained 0 μg/mL of ETP antibiotic and served as reference condition antibiotic exposures; pure water was added instead of ETP dissolved in pure water. Another 32 of the wells contained 0.417 μg/mL of ETP (for a final concentration of 0.25 μg/mL). The last 32 wells contained 3.33 μg/mL of ETP (for a final concentration of 2.0 μg/mL). The 64 wells containing some ertapenem constituted the treated condition antibiotic exposures.
The inoculum was small enough that no detectable difference in the sample's optical density at 600 mm (OD600) was detectable by a spectrophotometer with a sensitivity of 0.01 absorbance units. After an incubation at 37° C., the media became turbid with an OD600 of 0.334 absorbance units after 3.5 hours of incubation.
In this experiment, the number and volume of sample partitions was restricted, for logistical reasons, to 96 partitions 25 μL in volume, specifically the wells of a 96-well plate. A target loading density of 0.5 cells per partition was set. The contrived clinical sample was diluted by a factor of 9.97239*10^−7 via a three-step serial dilution to an estimated density of […].
To begin the AST protocol, the diluted contrived clinical specimen was physically partitioned into the 96 samples by transferring 10 μL of the specimen, in 96 separate transfers (actually 8 transfers with a multichannel pipette), to each well of the 96-well microtiter plate containing ETP and MHB. Then, the entire plate was sealed with a RNase/DNase-free plastic, adhesive sealing membrane and placed on a thermal block set to 37° C. and shaking at 700 rpm.
After 8 minutes of incubation at 37° C., the exposures were taken back to the lab bench. The entire volume of each antibiotic exposure was transferred to a Millipore® 96-well sterile polystyrene MultiScreenHTS® filter plate (Millipore-Sigma MSGVS2210). Each well of the filter plate contained a hydrophilic polyvinylidene fluoride (PVDF) filter membrane with a […]. A 96-well polypropylene microtiter plate was affixed to the bottom of the filter plate. The filter plate was promptly centrifuged at 2200 relative centrifugal force for 5.0 minutes to speed the passage of the antibiotic exposure sample through the filter and into 96-well microtiter plate. The collected fluid was called the “filtrate.” In total, between 19.0 and 21.2 minutes elapsed between the first addition of cells to the exposure volume and the start of the centrifugation. The total time elapsed differed slightly among wells because cells could not be manually added to all wells at the exact same time.
8 μL of each filtrate was transferred to new containers containing 6 μL of Lucigen DNA Extraction Buffer, vortexed, centrifuged briefly to collect liquid at the bottom of the tube, and then heated for 6 minutes at 65° C. and then 4 minutes at 98° C.
After the creation of the filtrates, 30 μL of fresh MHB media was added to all filters. […] The purpose of this new volume of MHB was to wash away residual extracellular nucleic acids that might be confused for intracellular nucleic acids when the lysate was collected. The 30 μL of fresh MHB was centrifuged for 5 minutes at 2200 rcf into a clean 96-well plate, then discarded.
Next, 20 μL of DNA Extraction Buffer was placed into all of the wells of the filter plate, on top of the filters. The filter plate was heated to 65° C. for 6 minutes, without shaking, on a ThermoMixer® flat surface heating block. Intracellular nucleic acids were released from lysed cells into the DNA Extraction Buffer fluid. Then, the filter plate was taped to a clean 96-well polypropylene microtiter plate and centrifuged at 2200 rcf for 5 minutes. The DEB fluid that flowed through the filter was collected in the microtiter plate below the filter plate. […]

For the compound `C[C@@H](O)[C@H]1C(=O)N2C(C(=O)O)=C(S[C@@H]3CN[C@H](C(=O)Nc4cccc(C(=O)O)c4)C3)[C@H](C)[C@H]12` [ETP, ertapenem], for the setting “2.0 μg/mL condition, more exposure time or more cells needed for a conclusive result”, the susceptibility interpretation result is reported as “more likely to be susceptible”. Besides, the proportion of lysis (2.0 μg/mL condition, reference background 0/29) is given as 2/34. Besides, where the note is “Treated 0.25 μg ETP/mL”, the “Intact (most likely number of cells)” value is listed as 26, the “Lysed (most likely number of cells)” value is 0, the “Both (number of wells)” value is on record as 0 and the “Empty (number of wells)” value was 15. In addition, for the setting “Treated 0.25 μg ETP/mL”, the “Extracellular only (number of wells)” value is reported as 0 and the “Intracellular only (number of wells)” value came to 17. Further, for the setting “Treated 2.00 μg ETP/mL”, the “Intact (most likely number of cells)” value is given as 32, the “Lysed (most likely number of cells)” value was determined as 2, the “Both (number of wells)” value is 2 and the “Empty (number of wells)” value worked out at 10. In addition, where the note is “Treated 2.00 μg ETP/mL”, the “Extracellular only (number of wells)” value is on record as 0 and the “Intracellular only (number of wells)” value amounted to 20.

Values taken from patent publication US20220282304A1, “SAME-SAMPLE ANTIBIOTIC SUSCEPTIBILITY TEST AND RELATED COMPOSITIONS, METHODS AND SYSTEMS” (CALIFORNIA INSTITUTE OF TECHNOLOGY, priority 2021, published 2022).
